Assay results as given in US20250230193A1, “CYCLIC COMPOUND HAVING SELECTIVE KRAS INHIBITORY EFFECT ON HRAS AND NRAS” (CHUGAI SEIYAKU KABUSHIKI KAISHA, priority 2022, published 2025).

Legend:
[1] = molecular target: GDP-bound NRAS wild-type protein (Homo sapiens, UniProt P01111); assay: Binding to NRAS by surface plasmon resonance (SPR), Single Cycle Kinetics; conditions: for NRAS/KRAS (ratio of KD value with respect to NRAS to KD value with respect to KRAS): GDP-bound NRAS wild-type vs GDP-bound KRAS wild-type
[2] = molecular target: GDP-bound HRAS wild-type protein (Homo sapiens, UniProt P01112); assay: Binding to HRAS by surface plasmon resonance (SPR), Single Cycle Kinetics; conditions: for HRAS/KRAS (ratio of KD value with respect to HRAS to KD value with respect to KRAS): GDP-bound HRAS wild-type vs GDP-bound KRAS wild-type
Chain of GDP-bound HRAS wild-type protein (P01112 whole entry): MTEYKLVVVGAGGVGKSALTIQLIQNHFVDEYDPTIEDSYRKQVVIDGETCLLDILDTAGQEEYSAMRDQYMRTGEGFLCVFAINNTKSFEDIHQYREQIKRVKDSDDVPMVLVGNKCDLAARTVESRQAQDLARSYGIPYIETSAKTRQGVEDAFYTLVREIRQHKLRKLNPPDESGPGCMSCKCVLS

Chain of GDP-bound NRAS wild-type protein (P01111 whole entry): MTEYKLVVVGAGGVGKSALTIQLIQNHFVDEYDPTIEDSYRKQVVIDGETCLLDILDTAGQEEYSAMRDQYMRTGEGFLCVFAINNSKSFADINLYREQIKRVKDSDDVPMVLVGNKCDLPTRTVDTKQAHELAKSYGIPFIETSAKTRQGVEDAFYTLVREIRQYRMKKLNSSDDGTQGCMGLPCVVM

CCO[C@@H]1C[C@H]2C(=O)NC3(CCC3)C(=O)N(C)[C@@H](C3CCCC3)C(=O)N(C)[C@H](C(=O)N(C)C)CC(=O)N(C)[C@@H](CC3CCCC3)C(=O)N[C@@H]([C@@H](C)CC)C(=O)N(C)CC(=O)N(C)[C@H]3CCCCN(C3=O)[C@@H](Cc3ccc(C(F)(F)F)cc3)C(=O)N(C)CC(=O)N[C@@H](CCc3cc(F)c(C(F)(F)F)c(F)c3)C(=O)N2C1 [PP0700]
NRAS/KRAS (ratio of KD value with respect to GDP-bound NRAS wild-type protein to KD value with respect to KRAS) ([1]; SPR): C (A compound having a KD ratio of 0.1 or more and less than 3 is denoted as C)
HRAS/KRAS (ratio of KD value with respect to GDP-bound HRAS wild-type protein to KD value with respect to KRAS) ([2]; SPR): B (a compound having 3 or more and less than 10 is denoted as B)

CCO[C@@H]1C[C@H]2C(=O)NC3(CCC3)C(=O)N(C)[C@@H](C3CCCC3)C(=O)N(CCC3CCC3)[C@H](C(=O)N(C)C)CC(=O)N(C)[C@@H](CC)C(=O)N[C@@H]([C@@H](C)CC)C(=O)N(C)CC(=O)N(C)[C@H]3CCCCN(C3=O)[C@@H](Cc3ccc(C(F)(F)F)cc3)C(=O)N(C)CC(=O)N[C@@H](CCc3cc(F)c(C(F)(F)F)c(F)c3)C(=O)N2C1 [PP0645]
NRAS/KRAS (ratio of KD value with respect to GDP-bound NRAS wild-type protein to KD value with respect to KRAS) ([1]; SPR): B (a compound having 3 or more and less than 10 is denoted as B)
HRAS/KRAS (ratio of KD value with respect to GDP-bound HRAS wild-type protein to KD value with respect to KRAS) ([2]; SPR): B (a compound having 3 or more and less than 10 is denoted as B)

CCO[C@@H]1C[C@H]2C(=O)NC3(CC(C)(C)C3)C(=O)N(C)[C@@H](C(CC)CC)C(=O)N(C)[C@H](C(=O)N(C)C)CC(=O)N(C)[C@@H](C(C)C)C(=O)N[C@@H]([C@@H](C)CC)C(=O)N(C)CC(=O)N(C)[C@H]3C/C=C\CCN(C3=O)[C@@H](Cc3ccc(C)cc3)C(=O)N(C)CC(=O)N[C@@H](CCc3ccc(C(F)(F)F)c(OC)c3)C(=O)N2C1 [PP2173]
NRAS/KRAS (ratio of KD value with respect to NRAS to KD value with respect to KRAS) ([1]; SPR): A (a compound having 10 or more and less than 20 is denoted as A)
HRAS/KRAS (ratio of KD value with respect to HRAS to KD value with respect to KRAS) ([2]; SPR): A (a compound having 10 or more and less than 20 is denoted as A)

CC[C@H](C)[C@@H]1NC(=O)[C@H](CC(C)C)N(C)C(=O)C[C@@H](C(=O)N2CCOCC2)N(C)C(=O)[C@H](C2CCCC2)N(C)C(=O)C2(COC2)NC(=O)[C@@H]2CCCN2C(=O)[C@H](CCc2cc(F)c(C(F)(F)F)c(F)c2)NC(=O)CN(C)C(=O)[C@H](Cc2ccc(C(F)(F)F)cc2)N2CCCCC[C@@H](C2=O)N(C)C(=O)CN(C)C1=O [PP0501]
NRAS/KRAS (ratio of KD value with respect to GDP-bound NRAS wild-type protein to KD value with respect to KRAS) ([1]; SPR): B (a compound having 3 or more and less than 10 is denoted as B)
HRAS/KRAS (ratio of KD value with respect to GDP-bound HRAS wild-type protein to KD value with respect to KRAS) ([2]; SPR): B (a compound having 3 or more and less than 10 is denoted as B)

CCO[C@@H]1C[C@H]2C(=O)NC3(CC(F)(F)C3)C(=O)N(C)[C@@H](C3CCCC3)C(=O)N(C)[C@H](C(=O)N3CCOCC3)CC(=O)N(C)[C@@H](CC(C)C)C(=O)N[C@@H]([C@@H](C)CC)C(=O)N(C)CC(=O)N(C)[C@H]3CC=C(C)CN(C3=O)[C@@H](Cc3ccc(C(F)(F)F)cc3)C(=O)N(C)CC(=O)N[C@@H](CCc3cc(F)c(C(F)(F)F)c(F)c3)C(=O)N2C1 [PP0828]
NRAS/KRAS (ratio of KD value with respect to NRAS to KD value with respect to KRAS) ([1]; KD ratio, SPR): C (A compound having a KD ratio of 0.1 or more and less than 3 is denoted as C)
HRAS/KRAS (ratio of KD value with respect to HRAS to KD value with respect to KRAS) ([2]; KD ratio, SPR): C (A compound having a KD ratio of 0.1 or more and less than 3 is denoted as C)

CC[C@H](C)[C@@H]1NC(=O)[C@H](CC(C)C)N(C)C(=O)C[C@@H](C(=O)N2CCOCC2)N(C)C(=O)[C@H](C2CCCC2)N(C)C(=O)C2(CCC2)NC(=O)[C@@H]2[C@H]3C[C@H]3CN2C(=O)[C@H](CCc2cc(F)c(C(F)(F)F)c(F)c2)NC(=O)CN(C)C(=O)[C@H](Cc2ccc(C(F)(F)F)cc2)N2CCCCC[C@@H](C2=O)N(C)C(=O)CN(C)C1=O [PP0819]
NRAS/KRAS (ratio of KD value with respect to NRAS to KD value with respect to KRAS) ([1]; KD ratio, SPR): A (a compound having 10 or more and less than 20 is denoted as A)
HRAS/KRAS (ratio of KD value with respect to HRAS to KD value with respect to KRAS) ([2]; KD ratio, SPR): B (a compound having 3 or more and less than 10 is denoted as B)

CCC[C@H]1C(=O)N[C@@H]([C@@H](C)CC)C(=O)N(C)CC(=O)N(C)[C@H]2C/C=C\CCN(C2=O)[C@@H](Cc2ccc(C(F)(F)F)cc2)C(=O)N(C)CC(=O)N[C@@H](CCc2ccc3sc(F)c(C)c3c2)C(=O)N2C[C@H](OCC)C[C@H]2C(=O)NC2(CC(C)(C)C2)C(=O)N(C)[C@@H](C2CCCC2)C(=O)N(C)[C@H](C(=O)N(C)C)CC(=O)N1C [PP2948]
NRAS/KRAS (ratio of KD value with respect to GDP-bound NRAS wild-type protein to KD value with respect to KRAS) ([1]; class symbols): A (a compound having 10 or more and less than 20 is denoted as A)
HRAS/KRAS (ratio of KD value with respect to GDP-bound HRAS wild-type protein to KD value with respect to KRAS) ([2]; class symbols): A (a compound having 10 or more and less than 20 is denoted as A)
